Experimental data: PubChem BioAssay AID256 (DTP/NCI, 2004)
“And” between values parts separate entries of the source, which are not always exact repeats. Equal values may be shown once. Inconclusive results and toxic doses are left out. How the source made its calls: active means survival T/C of 150% or more; inactive means T/C below 125% in these data.

Test system: CD2F1 mice, L1210 leukemia ip, survival T/C
Assay: NCI In Vivo Anticancer Drug Screen. Data for tumor model L1210 Leukemia (intraperitoneal) in CD2F1 (CDF1) mice
Conditions: higher = longer survival
Outline: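 Activity against a transplanted murine tumor was judged by comparing the compound group with a vehicle group. The outcome in the treated animals was divided by that in the controls.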

[1] = endpoint: mean survival time, dose: 100.0 mg/kg/injection, schedule: Q01DX009 (ip), vehicle: saline with Tween-80
[2] = endpoint: mean survival time, dose: 100.0 mg/kg/injection, schedule: Q04DX003 (ip), vehicle: saline with Tween-80
[3] = endpoint: mean survival time, dose: 200.0 mg/kg/injection, schedule: Q01DX009 (ip), vehicle: saline with Tween-80
[4] = endpoint: mean survival time, dose: 200.0 mg/kg/injection, schedule: Q04DX003 (ip), vehicle: saline with Tween-80
[5] = endpoint: mean survival time, dose: 400.0 mg/kg/injection, schedule: Q01DX009 (ip), vehicle: saline with Tween-80
[6] = endpoint: mean survival time, dose: 400.0 mg/kg/injection, schedule: Q04DX003 (ip), vehicle: saline with Tween-80
[7] = endpoint: mean survival time, dose: 12.5 mg/kg/injection, schedule: Q01DX005 (ip), vehicle: water
[8] = endpoint: mean survival time, dose: 25.0 mg/kg/injection, schedule: Q01DX005 (ip), vehicle: water
[9] = endpoint: mean survival time, dose: 50.0 mg/kg/injection, schedule: Q01DX005 (ip), vehicle: water
[10] = endpoint: mean survival time, dose: 100.0 mg/kg/injection, schedule: Q01DX001 (ip), vehicle: saline with Tween-80
[11] = endpoint: mean survival time, dose: 200.0 mg/kg/injection, schedule: Q01DX001 (ip), vehicle: saline with Tween-80
[12] = endpoint: mean survival time, dose: 400.0 mg/kg/injection, schedule: Q01DX001 (ip), vehicle: saline with Tween-80
[13] = endpoint: mean survival time, dose: 50.0 mg/kg/injection, schedule: Q01DX009 (ip), vehicle: Klucel (hydroxypropylcellulose) (HPC)
[14] = endpoint: mean survival time, dose: 100.0 mg/kg/injection, schedule: Q01DX009 (ip), vehicle: Klucel (hydroxypropylcellulose) (HPC)
[15] = endpoint: mean survival time, dose: 200.0 mg/kg/injection, schedule: Q01DX009 (ip), vehicle: Klucel (hydroxypropylcellulose) (HPC)

Measured: T/C

Clc1c(Cl)c(Cl)c(Cl)c(Cl)c1Cl
inactive: [1] 97 % of control | [2] 97 % of control | [3] 100 % of control | [4] 94 % of control | [5] 103 % of control | [6] 102 % of control

COC(=O)CCC(=O)c1ccc(OC)cc1
inactive: endpoint: mean survival time, dose: 100.0 mg/kg/injection, schedule: Q01DX001 (ip), vehicle: alcohol 92 % of control | endpoint: mean survival time, dose: 200.0 mg/kg/injection, schedule: Q01DX001 (ip), vehicle: alcohol 92 % of control | endpoint: mean survival time, dose: 400.0 mg/kg/injection, schedule: Q01DX001 (ip), vehicle: alcohol 101 % of control

Nc1nc(N)c(N)c(NC(c2ccccc2)c2ccccc2)n1
inactive: endpoint: mean survival time, dose: 75.0 mg/kg/injection, schedule: Q01DX001 (ip), vehicle: other 100 % of control

Cc1ccc(S(=O)(=O)N2CCC(C(=O)O)(c3ccccc3)CC2)cc1
inactive: [2] 113 % of control | [4] 98 % of control | [6] 95 % of control

CN(Cc1ccccc1)/C(N)=N/N
inactive: endpoint: mean survival time, dose: 75.0 mg/kg/injection, schedule: Q01DX001 (ip), vehicle: saline 102 % of control | endpoint: mean survival time, dose: 150.0 mg/kg/injection, schedule: Q01DX001 (ip), vehicle: saline 107 % of control

Cc1cc(=O)[nH]c2c(C)cc(Cl)cc12
inactive: [2] 106 % of control | [4] 109 % of control | [6] 97 % of control

CC(=O)Nc1cc(NC(C)=O)cc(N(CCCl)CCCl)c1
inactive: [7] 100 % of control | [8] 106 % of control | [9] 101 % of control

CC(=O)Oc1ccccc1O
inactive: endpoint: median survival time, dose: 12.5 mg/kg/injection, schedule: Q01DX009 (ip), vehicle: saline + Tween-80 + alcohol 96 % of control and 103 % of control | endpoint: median survival time, dose: 25.0 mg/kg/injection, schedule: Q01DX009 (ip), vehicle: saline + Tween-80 + alcohol 101 % of control and 109 % of control

Cc1ccc([N+](=O)[O-])cc1NC(=O)COc1ccc(Cl)cc1
inactive: [2] 98 % of control | [4] 94 % of control | [6] 90 % of control

COc1ccc(C(O)c2ncccc2C)cc1OC (stereo not drawn)
inactive: endpoint: mean survival time, dose: 12.5 mg/kg/injection, schedule: Q01DX009 (ip), vehicle: water 100 % of control | endpoint: mean survival time, dose: 25.0 mg/kg/injection, schedule: Q01DX009 (ip), vehicle: water 98 % of control | endpoint: mean survival time, dose: 50.0 mg/kg/injection, schedule: Q01DX009 (ip), vehicle: water 104 % of control | endpoint: mean survival time, dose: 100.0 mg/kg/injection, schedule: Q01DX009 (ip), vehicle: water 100 % of control | endpoint: mean survival time, dose: 200.0 mg/kg/injection, schedule: Q01DX009 (ip), vehicle: water 95 % of control

O=CC(CO)OC(C=O)n1cnc2c(=O)[nH]c(=O)[nH]c21 (stereo not drawn)
inactive: [7] 101 % of control | [8] 106 % of control | [9] 106 % of control | endpoint: mean survival time, dose: 100.0 mg/kg/injection, schedule: Q01DX005 (ip), vehicle: water 115 % of control

Cc1ccc(Sc2cccc3c2C(=O)c2c(Sc4ccc(C)cc4)cccc2C3=O)cc1
inactive: [1] 93 % of control | [3] 86 % of control

O=C(OC12CCCC1CC2)c1ccc([N+](=O)[O-])cc1 (stereo not drawn)
inactive: [1] 97 % of control | [3] 95 % of control

CCCC1C(CC)C=NN1C (stereo not drawn)
inactive: endpoint: mean survival time, dose: 100.0 mg/kg/injection, schedule: Q01DX001 (ip), vehicle: saline 102 % of control | endpoint: mean survival time, dose: 200.0 mg/kg/injection, schedule: Q01DX001 (ip), vehicle: saline 101 % of control | endpoint: mean survival time, dose: 400.0 mg/kg/injection, schedule: Q01DX001 (ip), vehicle: saline 98 % of control

CC(C)(C)C1CCC(OC(=O)C(=O)O)CC1 (stereo not drawn)
inactive: [10] 100 % of control | [1] 104 % of control | [11] 97 % of control | [3] 87 % of control | [12] 95 % of control

O=C1CCc2c(Br)cccc21
inactive: [1] 106 % of control | [2] 114 % of control | [3] 101 % of control | [4] 100 % of control | [5] 110 % of control | [6] 101 % of control

CCCCOC(=S)S.[Pt]
inactive: endpoint: mean survival time, dose: 18.75 mg/kg/injection, schedule: Q04DX003 (ip), vehicle: saline with Tween-80 101 % of control | endpoint: mean survival time, dose: 37.5 mg/kg/injection, schedule: Q04DX003 (ip), vehicle: saline with Tween-80 93 % of control | endpoint: mean survival time, dose: 75.0 mg/kg/injection, schedule: Q04DX003 (ip), vehicle: saline with Tween-80 101 % of control | endpoint: mean survival time, dose: 150.0 mg/kg/injection, schedule: Q04DX003 (ip), vehicle: saline with Tween-80 101 % of control | endpoint: mean survival time, dose: 300.0 mg/kg/injection, schedule: Q04DX003 (ip), vehicle: saline with Tween-80 97 % of control

CC1(C)C2CCC1(C)C(OCCCN=C(N)CSS(=O)(=O)O)C2 (stereo not drawn)
inactive: endpoint: mean survival time, dose: 9.4 mg/kg/injection, schedule: Q04DX002 (ip), vehicle: saline with Tween-80 95 % of control | endpoint: mean survival time, dose: 18.7 mg/kg/injection, schedule: Q04DX002 (ip), vehicle: saline with Tween-80 109 % of control | endpoint: mean survival time, dose: 37.5 mg/kg/injection, schedule: Q04DX002 (ip), vehicle: saline with Tween-80 112 % of control

COc1c(O)c2c(c3cc(C(=O)N4CCc5c4c(O)c(OC)c4[nH]c(C(=O)N6CC7CC78C6=CC(=O)c6[nH]cc(C)c68)cc54)[nH]c13)CCN2C(N)=O (stereo not drawn)
inactive: endpoint: mean survival time, dose: 1.0 micrograms/kg/injection, schedule: Q01DX009 (ip), vehicle: other 116 % of control | endpoint: mean survival time, dose: 4.4 micrograms/kg/injection, schedule: Q04DX003 (ip), vehicle: other 106 % of control | endpoint: mean survival time, dose: 6.6 micrograms/kg/injection, schedule: Q04DX003 (ip), vehicle: other 104 % of control | endpoint: mean survival time, dose: 10.0 micrograms/kg/injection, schedule: Q04DX003 (ip), vehicle: other 116 % of control | endpoint: mean survival time, dose: 22.5 micrograms/kg/injection, schedule: Q04DX003 (ip), vehicle: other 122 % of control | endpoint: mean survival time, dose: 30.0 micrograms/kg/injection, schedule: Q01DX009 (ip), vehicle: other 124 % of control | endpoint: mean survival time, dose: 100.0 micrograms/kg/injection, schedule: Q04DX003 (ip), vehicle: other 101 % of control

O=C1c2ccccc2C(=O)c2c1cccc2S(=O)(=O)O
inactive: [11] 97 % of control

S=C(Nc1ccc(Cl)c(Cl)c1)N1c2ccccc2-n2cccc2C1c1cccnc1 (stereo not drawn)
inactive: endpoint: mean survival time, dose: 12.5 mg/kg/injection, schedule: Q01DX009 (ip), vehicle: Klucel (hydroxypropylcellulose) (HPC) 96 % of control and 104 % of control | endpoint: mean survival time, dose: 25.0 mg/kg/injection, schedule: Q01DX009 (ip), vehicle: Klucel (hydroxypropylcellulose) (HPC) 98 % of control and 105 % of control | [13] 104 % of control and 109 % of control | [14] 113 % of control and 114 % of control and 107 % of control | [15] 115 % of control and 120 % of control and 123 % of control | endpoint: mean survival time, dose: 400.0 mg/kg/injection, schedule: Q01DX009 (ip), vehicle: Klucel (hydroxypropylcellulose) (HPC) 112 % of control

CCC(=O)Sc1ccccc1C(=O)Nc1ccc(Cl)cc1
inactive: endpoint: median survival time, dose: 25.0 mg/kg/injection, schedule: Q01DX009 (ip), vehicle: saline with Tween-80 112 % of control | endpoint: median survival time, dose: 50.0 mg/kg/injection, schedule: Q01DX009 (ip), vehicle: saline with Tween-80 111 % of control | endpoint: median survival time, dose: 100.0 mg/kg/injection, schedule: Q01DX009 (ip), vehicle: saline with Tween-80 107 % of control | endpoint: median survival time, dose: 200.0 mg/kg/injection, schedule: Q01DX009 (ip), vehicle: saline with Tween-80 112 % of control | endpoint: median survival time, dose: 400.0 mg/kg/injection, schedule: Q01DX009 (ip), vehicle: saline with Tween-80 86 % of control

O=C1c2ccccc2C(=O)N1Cl
inactive: [13] 96 % of control | endpoint: mean survival time, dose: 50.0 mg/kg/injection, schedule: Q04DX003 (ip), vehicle: other 100 % of control | [14] 89 % of control | endpoint: mean survival time, dose: 100.0 mg/kg/injection, schedule: Q04DX003 (ip), vehicle: other 104 % of control | [15] 93 % of control | endpoint: mean survival time, dose: 200.0 mg/kg/injection, schedule: Q04DX003 (ip), vehicle: other 110 % of control

Cc1ccc(C)c(C(=O)CCCCl)c1
inactive: endpoint: mean survival time, dose: 25.0 mg/kg/injection, schedule: Q01DX009 (ip), vehicle: saline with Tween-80 105 % of control | endpoint: mean survival time, dose: 25.0 mg/kg/injection, schedule: Q04DX003 (ip), vehicle: saline with Tween-80 93 % of control | endpoint: mean survival time, dose: 50.0 mg/kg/injection, schedule: Q01DX009 (ip), vehicle: saline with Tween-80 97 % of control | endpoint: mean survival time, dose: 50.0 mg/kg/injection, schedule: Q04DX003 (ip), vehicle: saline with Tween-80 96 % of control | [1] 100 % of control | [2] 96 % of control

COC1OC(COS(=O)(=O)c2ccc(C)cc2)C(O)C(O)C1O (stereo not drawn)
inactive: [10] 100 % of control | [1] 96 % of control | [11] 95 % of control | [3] 91 % of control | [12] 94 % of control | [5] 94 % of control
